Measurements from US10851092B2, “Pyridine compound” (Daiichi Sankyo Company, Limited, priority 2016, dated 2020).
Like-named read-outs stand apart in the source and are kept apart here. One block for each compound: values may come before it.

How the values were obtained:
RET-wild type = RET-wild type (Homo sapiens (Human), UniProt P07949); experiment: Evaluation of RET kinase inhibiting activity (cell system), Ba/F3 cells overexpressing Myc tagged RET; assay type: cell-based
Experimental: (§1) Thereafter, 1 mL of Cell Lysis Buffer (Cell signaling technology, #9803), a single tablet of Phosphatase inhibitor (Roche, #04906837001), and a single tablet of Protease inhibitor (Roche, #0469312400) were added to 9 mL of MilliQ, and 20 ul of the obtained mixture was then added to each well. The mixture thus obtained was placed on ice for 20 minutes, so that the cells were lysed. A 5-ul aliquot was taken from the cell lysate, and thereafter, 64 nl of Myc antibody (Cell signaling technology, #3946) and Streptavidin Donor beads in an equal amount of 102 nl of P-Tyr-100 Acceptor beads included in the Alpha Screen Phosphotyrosine (P-Tyr-100) assay kit (Perkin Elmer, #6760620C) were added to the aliquot in accordance with the instruction manual included with the aforementioned assay kit. The obtained mixture was reacted at room temperature overnight, and a RET kinase inhibiting activity rate was then measured using Envision.

KDR kinase = KDR kinase (Homo sapiens (Human), UniProt P35968); experiment: Evaluation of KDR kinase inhibiting activity (cell system), HUVEC, AlphaLISA; assay type: cell-based
Experimental: HUVEC cells were seeded on a plate at a cell density of 1500 cells per well, and then cultured overnight. The test compound (10 uM, 2.5 uM, 625 nM, 156 nM, […], 10 nM, 2.5 nM, or 0.6 nM) was added to each well, followed by culturing the obtained mixture for 2 hours. Thereafter, VEGF165 (Peprotech, #100-20) was added to the culture at a final concentration of 50 ng/ml, and the obtained mixture was then reacted at 37° C. for 5 minutes. Thereafter, the resulting cells were lysed with 50 ul of Lysis buffer included in AlphaLISA SureFire Ultra (Perkin Elmer, # ALSU-PVGFR-A500), and Acceptor beads and Donor beads were then added to 10 ul of the cell lysate according to the instruction manual included with the aforementioned kit. The mixture thus obtained was reacted at room temperature overnight, and thereafter, a KDR kinase inhibiting activity rate was measured using Envision (Perkin Elmer).
The value for a well to which only the Lysis buffer had been added was subtracted as a background from all of the values. Thereafter, the value for a well to which […] had been added and the test compound had not been added was defined as a KDR kinase activity of 100%, and the obtained value was corrected.

[1] = tested on: non-small cell lung cancer cell line LC-2/ad having a CCDC6-RET fusion gene; experiment: Cell growth inhibitory activity, non-small cell lung cancer cell line LC-2/ad; assay type: cell-based; conditions: Homo sapiens, 216 h; LC-2/ad cells, 9 days, CellTiter-Glo
Experimental: The cell growth inhibitory activity of the test compound on the non-small cell lung cancer cell line LC-2/ad having a CCDC6-RET fusion gene (RIKEN, J Thorac Oncol. 2012 December, 7(12), 1872-6) was measured.
LC-2/ad cells were seeded on a 96-well plate at a cell density of 5,000 cells per well, and then cultured at 37° C. in the presence of 5% CO2 overnight in a medium prepared by mixing RPMI-1640 containing 15% FBS and 25 mM HEPES with Ham's F12 Mixture at a mixing ratio of 1:1. Thereafter, the test compound was diluted, and then added to the 96-well plate. As a negative control, dimethyl sulfoxide (hereinafter referred to as DMSO) was added. The obtained mixture was cultured at 37° C. in the presence of 5% CO2 for 9 days, and thereafter, a cell count measuring reagent CellTiter-Glo® Luminescent Cell Viability Assay (Promega, # G7571) was added to the culture, followed by stirring the mixture. Thereafter, using a luminescence measurement device Envision, the luminescence intensity was measured. The measurement value of a well to which only the medium had been added was define as a survival rate of 0%, and the measurement value of a well to which DMSO had been added was defined as a survival rate of 100%. The survival rate of the LC-2/ad cells in the presence of each concentration of the test compound was calculated.

[2] = tested on: thyroid gland cancer cell line TT having RET activating mutation (C634W); experiment: Cell growth inhibitory activity, thyroid gland cancer cell line TT; assay type: cell-based; conditions: Homo sapiens, 216 h; TT cells, 9 days, CellTiter-Glo
Experimental: The cell growth inhibitory activity of the test compound on the thyroid gland cancer cell line TT having RET activating mutation (C634W) (Biochemical and Biophysical Research Communications. 1995 Feb. 27 (207), 1022-1028) was measured.
TT cells were seeded on a 96-well plate at a cell density of 5,000 cells per well, and were then cultured at 37° C. in the presence of 5% CO2 overnight in an F-12K nutrient mixture medium containing 10% FBS. Thereafter, the compound was diluted, and then added to the 96-well plate. As a negative control, dimethyl sulfoxide (hereinafter referred to as DMSO) was added. The obtained mixture was cultured at 37° C. in the presence of 5% CO2 for 9 days, and thereafter, a cell count measuring reagent CellTiter-Glo® Luminescent Cell Viability Assay was added to the culture, followed by stirring the mixture. Thereafter, using a luminescence measurement device Envision (Perkin Elmer), the luminescence intensity was measured. The measurement value of a well to which only the medium had been added was define as a survival rate of 0%, and the measurement value of a well to which DMSO had been added was defined as a survival rate of 100%. The survival rate of the TT cells in the presence of each concentration of the test compound was calculated.

[3] = tested on: phosphorylated RET in Ba/F3-RET-V804M tumors; experiment: One shot PKPD analysis, Ba/F3-RET-V804M tumors; assay type: in vivo, mice
[4] = target: RET recombinant protein (RET-wild type) (Homo sapiens (Human), UniProt P07949); experiment: Evaluation of RET kinase inhibiting activity (cell-free system), mobility shift assay; assay type: biochemical
Experimental: (§2) 19 uL of the RET kinase solution was added to each of lines A to P of a 384-well plate, and thereafter, the test compound at each concentration was added to lines C to N, and further, 1 uL of dimethyl sulfoxide (hereinafter referred to as DMSO) was added to each of lines A, B, O and P. Thereafter, the obtained mixtures were each preincubated at room temperature for 20 minutes. Furthermore, a substrate solution A containing ATP (final concentration: 1 mM) and a substrate solution B containing no ATP, both in addition to a reaction buffer and FL-Peptide 22 (PerkinElmer, #760366, final concentration: 1.5 uM) were produced. The substrate solution A was added in an amount of 5 uL to lines B to 0, whereas the substrate solution B was added in an amount of 5 uL to lines A and P. The obtained mixtures were each incubated at 28° C. for 45 minutes. A reaction termination solution (100 mM HEPES (pH 7.4), 0.015% Briji-35, 40 mM EDTA, and 0.1% Coating Reagent 3) was added in an amount of 40 ul to the reaction mixture, so as to terminate the reaction.
(§3) Using EZ Reader II (Perkin Elmer), a substrate peptide was separated from a phosphorylated peptide in the reaction solution, and the product ratio (P/(P+S)) calculated from the peak (S) of the substrate peptide and the peak (P) of the phosphorylated peptide was used for evaluation. The inhibition of the test compound having each concentration was obtained by the following formula (automatically calculated using the software of EZ Reader II System). Inhibition (%)=100×(1−Ci/Co) (a) Ci: Conversion rate of a reaction of a test compound with substrate solution A−conversion rate of a reaction of DMSO with substrate solution B Co: Conversion rate of a reaction of DMSO with substrate solution A−conversion rate of a reaction of DMSO with substrate solution B
(§4) Based on the inhibition rates of the test compound at 12 different concentrations according to the formula (a), a 4-parameter logistic regression curve was drawn. At this time, the 4-parameter logistic regression equation is expressed as follows. Inhibition (%)=Bottom+(Top−Bottom)/(1+(X/IC50)^^slope) (b) Top: Upward asymptote Slope: Slope parameter IC50: Value X of (Top+Bottom)/2 Bottom: Downward asymptote X: Concentration of test compound
(§5) First, any given initial values are inputted into Top, Slope, IC50, Bottom (Top=100, Slope=−1, IC50=approx. IC50, and Bottom=0), so that a regression curve was drawn. Subsequently, a least-squares method was executed to the sum of squares of a difference between the measured value and the estimated value obtained from formula (b) to calculate the coefficient of the 4-parameter logistic regression equation, so as to calculate IC50.

[5] = target: RET-Gatekeeper mutation (V804L) recombinant protein (Homo sapiens (Human), UniProt P07949, V804L); experiment: Evaluation of RET kinase inhibiting activity (cell-free system), gatekeeper mutant; assay type: biochemical
Experimental: as §2, §3, §4, §5

RET-V804L = RET-V804L (Homo sapiens (Human), UniProt P07949, V804L); experiment: Evaluation of RET kinase inhibiting activity (cell system), Ba/F3 cells overexpressing RET (V804L) mutant; assay type: cell-based; conditions: Ba/F3, compound 2 hours
Experimental: as §1

[6] = cell system, comparator compounds, Form: Free, read-out: IC50 (nM) KDR
[7] = comparator compounds, Form: Free, read-out: IC50 (nM) RET
[8] = cell system, Form: Mesylate, read-out: IC50 (nM) KDR

Sequence of KDR kinase (P35968 20-1356): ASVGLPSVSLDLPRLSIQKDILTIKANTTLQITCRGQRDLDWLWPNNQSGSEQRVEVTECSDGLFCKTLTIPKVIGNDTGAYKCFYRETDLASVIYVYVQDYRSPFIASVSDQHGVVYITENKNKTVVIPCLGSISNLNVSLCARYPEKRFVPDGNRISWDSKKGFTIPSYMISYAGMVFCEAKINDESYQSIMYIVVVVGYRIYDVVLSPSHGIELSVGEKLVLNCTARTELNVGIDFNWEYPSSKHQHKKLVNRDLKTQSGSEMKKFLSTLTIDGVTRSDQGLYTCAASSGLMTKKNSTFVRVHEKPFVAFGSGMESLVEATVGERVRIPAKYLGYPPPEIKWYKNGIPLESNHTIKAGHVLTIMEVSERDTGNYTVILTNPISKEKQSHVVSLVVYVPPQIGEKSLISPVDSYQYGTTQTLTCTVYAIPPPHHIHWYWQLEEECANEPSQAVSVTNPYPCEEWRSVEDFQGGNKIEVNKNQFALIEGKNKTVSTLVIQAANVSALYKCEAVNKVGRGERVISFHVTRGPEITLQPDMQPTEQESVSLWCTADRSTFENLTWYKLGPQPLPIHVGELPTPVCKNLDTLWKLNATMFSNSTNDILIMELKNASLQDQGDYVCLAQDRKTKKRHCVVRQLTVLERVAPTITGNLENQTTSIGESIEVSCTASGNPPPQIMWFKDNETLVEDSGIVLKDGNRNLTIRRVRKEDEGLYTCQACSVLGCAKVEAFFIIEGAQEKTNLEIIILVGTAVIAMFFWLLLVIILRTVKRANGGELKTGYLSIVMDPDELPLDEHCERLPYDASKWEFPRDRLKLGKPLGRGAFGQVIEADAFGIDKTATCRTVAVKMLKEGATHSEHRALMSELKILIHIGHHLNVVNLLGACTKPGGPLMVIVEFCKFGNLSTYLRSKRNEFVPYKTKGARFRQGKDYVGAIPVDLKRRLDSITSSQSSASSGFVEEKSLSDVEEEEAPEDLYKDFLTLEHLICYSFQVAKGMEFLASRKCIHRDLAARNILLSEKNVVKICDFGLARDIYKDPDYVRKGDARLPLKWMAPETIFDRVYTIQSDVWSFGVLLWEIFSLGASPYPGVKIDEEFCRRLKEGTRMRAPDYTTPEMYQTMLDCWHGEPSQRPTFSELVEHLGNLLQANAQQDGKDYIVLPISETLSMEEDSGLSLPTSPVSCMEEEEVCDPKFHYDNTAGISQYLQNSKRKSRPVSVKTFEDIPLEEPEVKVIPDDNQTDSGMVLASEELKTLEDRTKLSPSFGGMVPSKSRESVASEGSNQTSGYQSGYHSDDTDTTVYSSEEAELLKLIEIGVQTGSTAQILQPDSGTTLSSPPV
Sequence of RET-wild type (P07949 29-1114): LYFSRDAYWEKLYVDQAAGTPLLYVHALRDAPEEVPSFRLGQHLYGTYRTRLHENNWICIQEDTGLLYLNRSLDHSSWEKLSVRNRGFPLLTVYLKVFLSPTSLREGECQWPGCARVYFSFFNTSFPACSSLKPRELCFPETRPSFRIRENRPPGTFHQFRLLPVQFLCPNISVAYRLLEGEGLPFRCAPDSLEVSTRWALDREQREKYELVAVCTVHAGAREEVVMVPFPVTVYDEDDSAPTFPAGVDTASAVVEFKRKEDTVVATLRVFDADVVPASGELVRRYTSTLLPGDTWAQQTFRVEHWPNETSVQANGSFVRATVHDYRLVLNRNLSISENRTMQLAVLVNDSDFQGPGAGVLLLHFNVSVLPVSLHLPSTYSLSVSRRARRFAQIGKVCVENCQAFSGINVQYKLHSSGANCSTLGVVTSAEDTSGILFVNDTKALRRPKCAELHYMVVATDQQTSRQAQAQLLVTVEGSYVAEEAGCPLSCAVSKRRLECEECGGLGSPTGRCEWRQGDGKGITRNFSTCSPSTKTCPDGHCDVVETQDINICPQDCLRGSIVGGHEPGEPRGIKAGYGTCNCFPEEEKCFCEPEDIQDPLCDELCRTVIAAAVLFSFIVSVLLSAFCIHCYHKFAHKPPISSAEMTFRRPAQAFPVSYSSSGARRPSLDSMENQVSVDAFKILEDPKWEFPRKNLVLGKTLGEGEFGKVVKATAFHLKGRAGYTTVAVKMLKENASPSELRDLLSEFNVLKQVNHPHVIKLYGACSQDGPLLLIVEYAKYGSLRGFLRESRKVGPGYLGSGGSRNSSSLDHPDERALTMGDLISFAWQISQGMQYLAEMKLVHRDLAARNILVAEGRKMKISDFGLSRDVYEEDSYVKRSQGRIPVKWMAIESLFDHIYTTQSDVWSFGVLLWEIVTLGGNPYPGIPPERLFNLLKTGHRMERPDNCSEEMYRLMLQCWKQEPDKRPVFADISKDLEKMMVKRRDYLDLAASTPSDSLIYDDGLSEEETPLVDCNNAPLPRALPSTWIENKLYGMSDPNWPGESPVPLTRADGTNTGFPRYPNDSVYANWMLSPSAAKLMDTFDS
Sequence of RET recombinant protein (RET-wild type) (P07949 29-1114): as above
Sequence of RET-Gatekeeper mutation (V804L) recombinant protein (P07949 29-1114 V804L): as the sequence (P07949 29-1114) above, with V776L counted along it
Sequence of RET-V804L (P07949 29-1114 V804L): as the sequence (P07949 29-1114) above, with V776L counted along it

SMILES: COc1cc2cc(-c3ccc(CC(=O)Nc4cc(C(C)(C)C(F)(F)F)on4)cn3)cnc2cc1OC [Example 1, 2-[6-(6,7-Dimethoxyquinolin-3-yl)pyridin-3-yl]-N-[5-(1,1,1-trifluoro-2-methylpropan-2-yl)-1,2-oxazol-3-yl]acetamide]
IC50 (RET-wild type; Form: Free, read-out: IC50 (nM) RET): 18 nM

SMILES: CCc1cc2c(cc1N1CCC(N3CCOCC3)CC1)C(C)(C)c1[nH]c3cc(C#N)ccc3c1C2=O [Alectinib, 9-Ethyl-6,6-dimethyl-8-[4-(morpholin-4-yl)piperidin-1-yl]-11-oxo-6,11-dihydro-5H-benzo[b]carbazole-3-carbonitrile, reference compound]
IC50 [1]: 308 nM
IC50 [2]: 112 nM

SMILES: COc1cc2cc(-c3ccc(CC(=O)Nc4cc(C(C)(C)C(F)(F)F)no4)c(F)c3)cnc2cc1OC [Ref Ex. 3, 2-[4-(6,7-Dimethoxyquinolin-3-yl)-2-fluorophenyl]-N-[3-(1,1,1-trifluoro-2-methylpropan-2-yl)-1,2-oxazol-5-yl]acetamide, reference compound]
IC50 (KDR kinase; [6]): 6 nM
IC50 (RET-wild type; [7]): 8 nM

SMILES: COc1cc2cc(-c3ccc(CC(=O)Nc4cc(C(C)(C)C(F)(F)F)n[nH]4)cn3)cnc2cc1OC [Example 6, 2-[6-(6,7-Dimethoxyquinolin-3-yl)pyridin-3-yl]-N-[3-(1,1,1-trifluoro-2-methylpropan-2-yl)-1H-pyrazol-5-yl]acetamide Methanesulfonate]
IC50 (KDR kinase; KDR, HUVEC cells, VEGF165 50 ng/ml, compound 2 hours, read-out: IC50): 566 nM
IC50 (KDR kinase; [8]): 566 nM

Continued, in another order:

IC50 (KDR kinase; [6]): 16 nM
IC50 (RET-wild type; [7]): 5 nM
SMILES: COc1cc2cc(-c3ccc(CC(=O)Nc4cc(C(C)(C)C(F)(F)F)n[nH]4)cc3)cnc2cc1OC [Ref Ex. 2, 2-[4-(6,7-Dimethoxyquinolin-3-yl)phenyl]-N-[3-(1,1,1-trifluoro-2-methylpropan-2-yl)-1H-pyrazol-5-yl]-acetamide, reference compound]

IC50 (KDR kinase; cell system, comparator compounds, Form: Mesylate, read-out: IC50 (nM) KDR): 7 nM
IC50 (RET-wild type; [7]): 8 nM
SMILES: COc1cc2cc(-c3ccc(CC(=O)Nc4cc(C(C)(C)C(F)(F)F)no4)cc3)cnc2cc1OC [Ref Ex. 1, 2-[4-(6,7-Dimethoxyquinolin-3-yl)phenyl]-N-[3-(1,1,1-trifluoro-2-methylpropan-2-yl)-1,2-oxazol-5-yl]-acetamide, reference compound]

exposure in tumors ([3]; Ba/F3-RET-V804M tumors, 10 mg/kg oral): poor exposure in tumors
inhibitory effect in vitro ([4]; in vitro): strong inhibitory effect
IC50 ([4]; non-cell system, read-out: Biochemical assay (non-cell system) IC50 (nM) RET-WT): 1.5 nM
IC50 ([5]; non-cell system, read-out: Biochemical assay (non-cell system) IC50 (nM) RET-V804L): 1.7 nM
SMILES: COc1cc2ncc(-c3cnc(CC(=O)Nc4cc(C(C)(C)C(F)(F)F)on4)c(F)c3)nc2cc1OC [Compound 229, reference compound]
suppression of phosphorylated RET (pRET) in Ba/F3-RET-V804M tumors ([3]; 10 mg/kg oral): did not suppress
Relative phosphorylation of RET (%) in Ba/F3-RET-V804M tumors ([3]; Dose: 10 mg/kg oral, six hours after administration, relative to vehicle): 98%

IC50 (KDR kinase; [8]): 828 nM
SMILES: COc1cc2cc(-c3ccc(CC(=O)Nc4cc(C(C)(C)C(F)(F)F)on4)cn3)cnc2cc1OC [Example 2, 2-[6-(6,7-Dimethoxyquinolin-3-yl)pyridin-3-yl]-N-[5-(1,1,1-trifluoro-2-methylpropan-2-yl)-1,2-oxazol-3-yl]acetamide Methanesulfonate]

IC50 (KDR kinase; [6]): 9 nM
IC50 (RET-wild type; [7]): 7 nM
SMILES: COc1cc2ncc(-c3ccc(CC(=O)Nc4cc(C(C)(C)C(F)(F)F)on4)cc3)nc2cc1OC [Ex. 8, reference compound]

IC50 [1]: 82 nM
IC50 (RET-V804L): 15 nM
IC50 [2]: 17 nM
IC50 ([4]; cell-free system, ATP 1 mM, read-out: RET-wild type IC50): 2.2 nM
IC50 ([5]; cell-free system, ATP 1 mM, read-out: RET-V804L IC50): 2.7 nM
IC50 (RET-wild type; Ba/F3, compound 2 hours, read-out: RET-wild type IC50): 10 nM
SMILES: COc1cc2cc(-c3ccc(CC(=O)Nc4cc(C(C)(C)C(F)(F)F)n[nH]4)cn3)cnc2cc1OC [Example 5, 2-[6-(6,7-Dimethoxyquinolin-3-yl)pyridin-3-yl]-N-[3-(1,1,1-trifluoro-2-methylpropan-2-yl)-1H-pyrazol-5-yl]acetamide]
